The values that follow come from patent publication EP0099122A2, “Compositions comprising pepstatin and an histamine H2-receptor antagonist having an enhanced antiulcer activity” (Bristol-Myers Company, priority 1982, dated 1984).

The test system of series [1] is pylorus ligated rat. The note with it: pylorus ligated (Shay) rat, Umezawa et al.; cited from earlier work.
Another series concerns pepsin. The conditions noted are these: 100 mg doses seven times a day, ulcer patients; cited from earlier work.
The conditions of series [2]: cited from earlier work.
For series [3] the following is noted: all animal species studied; cited from earlier work.
The next series concerns gastric peptic activity. The note with it: patients with ulcer dyspepsia, cited from earlier work.
In a further series the test system is duodenal ulcer. The conditions noted are these: 100 mg doses seven times a day versus placebo; cited from earlier work.
Series [4] has as its system pepsin activity in the gastric juice of swine. The conditions noted are these: added to the feed at >50 ppm; cited from earlier work.
The subject of series [5] is pylorus ligated rat. Nature of the series: Pylorus ligated (Shay) rat. The format is in vivo. The note with it: 20 mg/kg po, 18 hour pylorus ligated rat, previous studies of the applicant. Here is the method:
The role of the proteolytic enzyme, pepsin, in the etiology of ulceration is not completely understood. […] It is also possible that pepsin is entirely responsible for the erosions and that the acid produces pain and retards healing. • 1) Umezawa, H. et al., in J. Antibiotics, 23, 259-262 (1970), disclose the pentapeptide, pepstatin, which has the structure [drawing 4] and which is a specific complexing agent for the enzyme pepsin. […] Pepstatin was administered in 100 mg doses, given seven aimes a day, this dosage being sufficient to inhibit the peptic activity of gastric juice for 18 hours a day. […] J. Gastroent., 14, 929-932 (1979), report the results of a double-blind randomized clinical trial of pepstatin versus placebo in patients having gastric ulcer. Pepstatin was administered in 100 mg doses seven times a day. […] When the two agents were given together, significant ulcer reduction was found after only one-half day of predosing. Carbenoxolone is not an antisecretory or anti-pepsin agent, but acts by stimulating gastric mucus synthesis. • 6) Dajani, E. Z. et al., in J. Pharmacol. Exp. Ther., 210, 373-377 (1979), disclose that, in stress ulceration tests in rats, a combination of cimetidine and propantheline bromide produced synergistic antiulcer activity and that a combination of cimetidine and thiopropazate hydrochloride produced additive antiulcer activity. […]

Another series deals with gastric ulcer. The conditions noted are these: 100 mg doses seven times a day versus placebo; cited from earlier work.

Molecules are shown by their SMILES. “Also recorded” adds a separate entry of the source. Square brackets hold non-standard residues; d marks the D form. Peptide text beside a SMILES is read from it. * marks the point of attachment. Sta = CC(C)C[C@H](N)[C@@H](O)CC(=O)O; Isovaleryl = CC(C)CC(=O)*

For the compound `CC(C)CC(=O)N[C@H](C(=O)N[C@H](C(=O)N[C@@H](CC(C)C)[C@@H](O)CC(=O)N[C@@H](C)C(=O)N[C@@H](CC(C)C)[C@@H](O)CC(=O)O)C(C)C)C(C)C` [Pepstatin, pepstatin] (Isovaleryl-VV[Sta]A[Sta]-OH), the “formation of stomach ulcers” value in the series on pylorus ligated rat [1] is reported as “prevent the formation of stomach ulcers”. Moreover, the “time for which pepsin activity was inhibited” value in the series on pepsin was 18 hours a day. In addition, the “excreted in the feces” value in series [2] (oral administration, animal studies, within 72 hours) is “more than 90%”. For the same compound, the “absorption upon oral administration” value in series [2] (oral) was “essentially unabsorbed; also recorded: only poorly absorbed”. Moreover, the LD50 entry in [3] was “exceeded 3000 mg/kg”. For the same compound, the side effects entry with gastric peptic activity (daily oral doses of 700 mg for up to three months) is given as “no side effects were observed”. Besides, in the series with gastric peptic activity, the gastric acidity result is “has no effect on the gastric acidity” and the gastric peptic activity result was “inhibits gastric peptic activity”. For the same compound, the “healing or symptomatology of duodenal ulcer” value in the series on duodenal ulcer was “no significant difference between pepstatin and placebo”. Also, in [4], the occurrence of ulcers entry is recorded as “prevented the occurrence of ulcers” and the “pepsin activity in the gastric juice” value was “inhibited pepsin activity in the gastric juice of swine”. Besides, in the series with pylorus ligated rat [5], the pepsin activity result is given as “completely inhibited pepsin activity” and the ulcer formation entry was “antagonized ulcer formation”. The “healing or symptomatology of gastric ulcer” value in the series on gastric ulcer is reported as “not able to detect any influence of pepstatin”.
